Data taken from patent US20250041284A1, “TREATMENT OF NEUROLOGICAL DISORDERS” (Praxis Precision Medicines, Inc., priority 2022, published 2025).
“And” between values parts separate entries of the source, which are not always exact repeats. Equal entries are not always repeated.

Experiments:
[1] = target: T1, hNaV1.6 (Homo sapiens, UniProt Q9UQD0); assay: Apparent binding (KON) and unbinding (KOFF) rates inferred from INa inhibition kinetics; format: cell-based
T1 construct: expressed in transfected cells; host or cells: HEK cells

[2] = system: various NaV isoforms and orthologs; assay: ATX-II induced persistent INa at NaV isoforms and orthologs; format: cell-based; settings: in words, FIG. 8C
[3] = Phase 1 clinical trial, single ascending dose (Part A), healthy volunteers; format: in vivo, human; settings: healthy participants, single oral doses up to 45 mg
Text: This is a trial to assess the safety, tolerability, pharmacokinetics (PK), and pharmacodynamics (PD) of Compound 1 in healthy participants aged 18 to 55 years (inclusive). The trial is initially comprised of 2 parts, with 1 additional optional part, as follows: • Part A is randomized, double-blinded, and placebo-controlled. Part A is designed to investigate the safety, PK, and PD of single ascending doses of Compound 1. • Part B is randomized, double-blinded, and placebo-controlled. Part B is designed to investigate the safety, PK, and PD of multiple ascending doses (selected based on the results from Part A) of Compound 1. • Part C (optional) is a randomized, open-label, crossover design food effect evaluation to investigate the PK of a single dose (selected based on the results from Part A) of Compound 1 in the fasted and fed state.
Safety and tolerability assessments for Parts A, B, and C will include vital signs, 12-lead ECGs, physical examinations, clinical laboratory tests, and the C-SSRS (for Part B).
Healthy participants will be enrolled to receive single ascending oral doses of Compound 1 or placebo on Day 1. FIG. 14A is an illustration of the dosing scheme for Part A (single ascending dose) of the trial. Dose escalation in Part A will initially be conducted in up to a total of 4 planned cohorts (Cohorts A1 to A4). Following completion of Cohort A4, up to an additional 3 escalation cohorts may be added. […] Doses may be adjusted upward or downward based on safety, tolerability, and PK data from the preceding cohorts. Cohorts after A4 will be numbered sequentially (A5, A6, etc.). […]
Compound 1 will be administered to Cohort A1 participants at the starting dose of 5 mg. […] The safety and tolerability of each sentinel participant will be monitored until Day 2 and will be reviewed prior to dosing the remainder of participants in the cohort. […]
Cohorts will be dosed in an escalating order. […] If the current dose level is determined to be safe and tolerated by the SRC, the next dose cohort will be randomized to receive the selected dose of active Compound 1 or placebo. […]

[4] = recovery from inhibition of hNaV1.6 INa

T1 sequence (Q9UQD0 whole entry): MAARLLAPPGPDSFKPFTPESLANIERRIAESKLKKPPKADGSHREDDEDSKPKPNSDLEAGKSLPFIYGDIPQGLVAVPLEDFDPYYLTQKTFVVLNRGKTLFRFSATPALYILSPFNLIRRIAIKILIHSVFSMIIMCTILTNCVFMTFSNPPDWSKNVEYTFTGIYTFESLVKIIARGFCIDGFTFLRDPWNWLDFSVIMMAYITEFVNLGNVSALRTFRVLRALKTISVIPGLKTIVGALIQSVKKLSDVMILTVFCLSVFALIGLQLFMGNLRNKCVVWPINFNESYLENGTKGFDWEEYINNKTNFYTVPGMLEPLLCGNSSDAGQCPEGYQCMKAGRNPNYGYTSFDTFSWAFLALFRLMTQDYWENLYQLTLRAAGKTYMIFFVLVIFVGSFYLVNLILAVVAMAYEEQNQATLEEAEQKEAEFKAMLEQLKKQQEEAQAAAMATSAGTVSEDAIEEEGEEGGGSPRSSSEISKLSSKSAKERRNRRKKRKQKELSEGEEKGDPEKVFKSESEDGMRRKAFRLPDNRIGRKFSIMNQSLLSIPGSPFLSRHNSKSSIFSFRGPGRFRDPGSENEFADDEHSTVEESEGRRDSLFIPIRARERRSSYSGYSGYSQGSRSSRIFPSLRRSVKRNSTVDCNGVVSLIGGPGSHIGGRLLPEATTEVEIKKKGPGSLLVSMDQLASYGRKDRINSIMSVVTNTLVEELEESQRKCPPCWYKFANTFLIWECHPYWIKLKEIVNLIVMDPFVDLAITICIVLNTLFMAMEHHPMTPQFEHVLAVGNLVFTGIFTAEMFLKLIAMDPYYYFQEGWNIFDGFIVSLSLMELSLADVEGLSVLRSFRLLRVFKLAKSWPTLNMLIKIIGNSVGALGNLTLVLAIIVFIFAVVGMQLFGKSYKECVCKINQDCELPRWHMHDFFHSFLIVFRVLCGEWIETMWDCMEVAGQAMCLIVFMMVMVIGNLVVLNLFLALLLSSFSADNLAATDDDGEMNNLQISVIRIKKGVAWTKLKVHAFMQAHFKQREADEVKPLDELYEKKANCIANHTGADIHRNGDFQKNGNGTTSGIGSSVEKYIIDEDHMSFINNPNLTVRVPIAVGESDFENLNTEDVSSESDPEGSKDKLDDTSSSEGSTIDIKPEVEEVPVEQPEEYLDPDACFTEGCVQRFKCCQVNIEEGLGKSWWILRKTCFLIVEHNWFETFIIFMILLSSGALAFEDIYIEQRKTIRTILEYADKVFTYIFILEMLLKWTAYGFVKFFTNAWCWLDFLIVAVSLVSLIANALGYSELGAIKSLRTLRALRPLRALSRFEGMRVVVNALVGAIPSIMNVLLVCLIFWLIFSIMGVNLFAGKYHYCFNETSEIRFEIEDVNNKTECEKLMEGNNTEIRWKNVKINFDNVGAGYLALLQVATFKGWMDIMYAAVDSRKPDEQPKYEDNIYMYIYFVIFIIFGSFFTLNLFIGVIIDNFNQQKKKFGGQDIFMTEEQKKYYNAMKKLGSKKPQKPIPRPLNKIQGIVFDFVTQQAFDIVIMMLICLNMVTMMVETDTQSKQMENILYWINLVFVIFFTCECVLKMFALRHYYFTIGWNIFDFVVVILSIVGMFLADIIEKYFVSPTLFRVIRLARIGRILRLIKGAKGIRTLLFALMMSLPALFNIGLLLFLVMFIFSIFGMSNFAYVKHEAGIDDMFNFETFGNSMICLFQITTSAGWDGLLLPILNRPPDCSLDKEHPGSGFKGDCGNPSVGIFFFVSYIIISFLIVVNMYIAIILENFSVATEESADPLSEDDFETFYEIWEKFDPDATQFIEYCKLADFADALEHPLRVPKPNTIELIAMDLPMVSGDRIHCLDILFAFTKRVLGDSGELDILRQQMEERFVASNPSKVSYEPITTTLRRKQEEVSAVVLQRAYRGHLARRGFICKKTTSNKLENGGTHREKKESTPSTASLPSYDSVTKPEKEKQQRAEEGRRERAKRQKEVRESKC

CCOC(F)(F)c1nnc2ccc(-c3cnc(OCC(F)(F)F)c(F)c3)cn12 [Compound 1]
apparent KON ([1]; development of inhibition of hNaV1.6 INa): 4.2e+06 M⁻¹ s⁻¹ and 4.168e+06 M⁻¹ s⁻¹
kon ([1]; development of inhibition of hNaV1.6 INa, read-out: apparent KON): 4.2e+06 M⁻¹ s⁻¹
KON versus carbamazepine ([1]; fold faster): > 1,500 ×
KOFF slower than carbamazepine ([1]; fold slower unbinding): 33 ×
apparent KOFF [1, 4]: 1.7 s⁻¹ and 1.72 s⁻¹
koff [1, 4]: 1.7 s⁻¹
inhibition of ATX-II induced persistent INa at multiple NaV isoforms and orthologs [2]: inhibits ATX-II induced persistent INa expressed by multiple NaV isoforms and orthologs
most frequently reported TEAEs [3]: headache and fatigue
safety and tolerability [3]: safe and generally well tolerated
severity of treatment-emergent adverse events (TEAEs) [3]: mild in severity
